From US20220279826A1, “OFF-FLAVOR SUPPRESSING AGENT” (AJINOMOTO CO., INC., priority 2019, published 2022) come the findings set out here.

Assay [1] can be described thus: Sensory evaluation in soy protein aqueous solution (Experimental Example 13). To be noted: Table 27. As for the experimental part:
Each compound shown in the following Table 27 was added to an aqueous solution prepared by dissolving powdered soy protein (4 parts by weight) in water (96 parts by weight) (hereinafter at times referred to as soy protein aqueous solution) so as to achieve the concentration (addition concentration) shown in the following Table 27 to prepare each evaluation sample. Here, the powdered soy protein manufactured by FUJI OIL CO., LTD. was used.
Based on the following evaluation criteria, a panel of four experts determined by consensus the intensity of off-tastes (bitter taste, harsh taste, astringent taste) derived from soy protein in each evaluation sample, by comparison with a soy protein aqueous solution without addition of any compound (negative control).

A short description of assay [2]: Sensory evaluation in 1 wt % methyl cellulose aqueous solution (Experimental Example 20). To be noted: Table 35. As to the method: Each compound shown in the following Table 35 was added to a 1 wt % methyl cellulose aqueous solution (aqueous solution prepared by dissolving methyl cellulose (1 part by weight) in water (99 parts by weight)) so as to achieve the concentration (addition concentration) shown in the following Table 35 to prepare each evaluation sample. Here, the methyl cellulose manufactured by Unitec Foods Co., Ltd. was used.
Based on the following evaluation criteria, a panel of four experts determined by consensus the intensity of off-tastes (bitter taste, harsh taste, astringent taste) derived from methyl cellulose in each evaluation sample, by comparison with a 1 wt % methyl cellulose aqueous solution without addition of any compound (negative control).

The nature of assay [3]: Sensory evaluation of off-taste suppressing effect in 0.8 wt % potassium chloride aqueous solution (Experimental Examples 1 and 2).
Assay [4] can be described thus: Sensory evaluation in BCAA sweetness aqueous solution (Experimental Example 6). The arrangement: key to off-taste suppressing effect: ±: no change from negative control; −: slightly suppressed compared to negative control; −−: suppressed compared to negative control (same level of intensity as BCAA sweetness aqueous solution in which total concentration of leucine, isoleucine, and valine (weight ratio=2:1:1) exceeds 0.8 wt % and is not more than 0.9 wt %); −−−: considerably suppressed compared to negative control (same level of intensity as BCAA sweetness aqueous solution in which total concentration of leucine, isoleucine, and valine (weight ratio=2:1:1) is not more than 0.8 wt %). To be noted: for intensity of off-tastes (bitter taste, harsh taste) derived from amino acid (branched chain amino acid): summary of Table 20. As for the experimental part: Each compound shown in the following Table 20 was added to an aqueous solution prepared by dissolving leucine (0.50 parts by weight), isoleucine (0.25 parts by weight), valine (0.25 parts by weight), and granulated sugar (4 parts by weight) in ion exchange water (95 parts by weight) (hereinafter at times referred to as BCAA sweetness aqueous solution) so as to achieve the concentration (addition concentration) shown in the following Table 20 to prepare each evaluation sample.
Based on the following evaluation criteria, a panel of four experts determined by consensus the intensity of off-tastes (bitter taste, harsh taste) derived from amino acid in each evaluation sample, by comparison with a BCAA sweetness aqueous solution without addition of any compound (negative control).

Assay [5] can be described thus: Sensory evaluation in sodium acetate aqueous solution (Experimental Example 18). To be noted: Table 33. As to the method:
Each compound shown in the following Table 33 was added to an aqueous solution prepared by dissolving sodium acetate (1 part by weight) and acetic acid (0.3 parts by weight) in water (98.7 parts by weight) (hereinafter at times referred to as sodium acetate aqueous solution) so as to achieve the concentration (addition concentration) shown in the following Table 33 to prepare each evaluation sample.
Based on the following evaluation criteria, a panel of four experts determined by consensus the intensity of off-tastes (bitter taste, harsh taste, astringent taste) derived from sodium acetate in each evaluation sample, by comparison with a sodium acetate aqueous solution without addition of any compound (negative control).

Assay [6] is described as follows: Sensory evaluation in 0.007 wt % sucralose aqueous solution (Experimental Example 11). As to conditions: Table 25. As to the method: Each compound shown in the following Table 25 was added to a 0.007 wt % sucralose aqueous solution (an aqueous solution prepared by dissolving sucralose (0.007 parts by weight) in water (99.993 parts by weight)) so as to achieve the concentration (addition concentration) shown in the following Table 25 to prepare each evaluation sample.
Based on the following evaluation criteria, a panel of three experts determined by consensus the intensity of off-tastes (bitter taste, harsh taste, metallic taste) derived from sucralose in each evaluation sample, by comparison with a 0.007 wt % sucralose aqueous solution without addition of any compound (negative control).

The nature of assay [7]: Sensory evaluation in chicken broth solution with potassium chloride (Experimental Example 3). As to conditions: chicken broth solution with 0.8 wt % potassium chloride; addition concentration 10 ppb (1.25 weight ppm with respect to potassium chloride). As for the experimental part: As shown in the following (1) to (3) below, 0.8 wt % of potassium chloride was added to a food base powder corresponding to 0.5 wt % of sodium chloride to prepare each base solution having an off-taste derived from potassium chloride.
Potassium chloride (0.8 g) was added to a commercially available powdered chicken broth mix (manufactured by Ajinomoto Co., Inc., trade name “Marutorigara Soup”) (1.0 g), hot water (98.2 g) was added to dissolve the mixture to prepare a base solution (chicken broth soup solution).
Each compound shown in the following Tables 15 to 17 was added to each base solution (ramen noodle soup solution, chicken broth solution, potage solution) so as to achieve the concentration (addition concentration) shown in the following Tables 15 to 17 to prepare each evaluation sample.
By a method similar to that in Experimental Example 1, a panel of two experts determined the intensity of off-tastes (bitter taste, metallic taste, harsh taste, astringent taste) derived from potassium chloride in each evaluation sample.

The mark [8] stands for this setting: 0.8 wt % potassium chloride aqueous solution, addition concentration 5 weight ppb (0.625 weight ppm with respect to potassium chloride).
Setting [9] is: 0.8 wt % potassium chloride aqueous solution, addition concentration 10 weight ppb (1.25 weight ppm with respect to potassium chloride).
Where [10] appears, read: 0.8 wt % potassium chloride aqueous solution, addition concentration 50 weight ppb (6.25 weight ppm with respect to potassium chloride).
The mark [11] stands for this setting: 0.8 wt % potassium chloride aqueous solution, addition concentration 100 weight ppb (12.5 weight ppm with respect to potassium chloride).
[12] abbreviates: in words, potassium chloride aqueous solutions, Tables 1 to 14.
[13] abbreviates: potassium chloride aqueous solutions, Tables 1 to 14.
Setting [14] is: addition concentration 1 weight ppb (0.1 weight ppm with respect to amino acid).
[15] abbreviates: addition concentration 10 weight ppb (1 weight ppm with respect to amino acid).
The mark [16] stands for this setting: addition concentration 50 weight ppb (5 weight ppm with respect to amino acid).
Setting [17] is: addition concentration 100 weight ppb (10 weight ppm with respect to amino acid).

`CC1=C(O)C(=O)CC1` [cyclotene]: the “intensity of off-tastes (bitter taste, harsh taste, astringent taste) derived from soy protein” value in assay [1] is “suppressed”. Besides, the “intensity of off-tastes (bitter taste, harsh taste, astringent taste) derived from methyl cellulose” value in assay [2] is “suppressed”. Moreover, the off-taste suppressing effect result is “+ (intensity of the same level as potassium chloride aqueous solution with potassium chloride concentration of not less than 0.75 wt % and less than 0.8 wt %)” in assay [3] (0.8 wt % potassium chloride aqueous solution, addition concentration 1 weight ppb (0.125 weight ppm with respect to potassium chloride)); “++ (intensity of the same level as potassium chloride aqueous solution with potassium chloride concentration of not less than 0.7 wt % and less than 0.75 wt %)” in assay [3] (setting [8]); “+++ (intensity of the same level as potassium chloride aqueous solution with potassium chloride concentration of not less than 0.65 wt % and less than 0.7 wt %)” in assay [3] (setting [9]); “+++ (intensity of the same level as potassium chloride aqueous solution with potassium chloride concentration of not less than 0.65 wt % and less than 0.7 wt %)” in assay [3] (setting [10]); “++ (intensity of the same level as potassium chloride aqueous solution with potassium chloride concentration of not less than 0.7 wt % and less than 0.75 wt %)” in assay [3] (setting [11]); “high” in assay [3] (setting [12]). In addition, the off-taste suppressing effect result in assay [4] (setting [14]) was “−− (suppressed compared to negative control (same level of intensity as BCAA sweetness aqueous solution in which total concentration of leucine, isoleucine, and valine (weight ratio=2:1:1) exceeds 0.8 wt % and is not more than 0.9 wt %))”; in assay [4] (setting [15]), “−− (suppressed compared to negative control (same level of intensity as BCAA sweetness aqueous solution in which total concentration of leucine, isoleucine, and valine (weight ratio=2:1:1) exceeds 0.8 wt % and is not more than 0.9 wt %))”; in assay [4] (setting [16]), “−− (suppressed compared to negative control (same level of intensity as BCAA sweetness aqueous solution in which total concentration of leucine, isoleucine, and valine (weight ratio=2:1:1) exceeds 0.8 wt % and is not more than 0.9 wt %))”; in assay [4] (setting [17]), “−− (suppressed compared to negative control (same level of intensity as BCAA sweetness aqueous solution in which total concentration of leucine, isoleucine, and valine (weight ratio=2:1:1) exceeds 0.8 wt % and is not more than 0.9 wt %))”; in assay [7], “+++ (intensity of the same level as potassium chloride aqueous solution with potassium chloride concentration of not less than 0.65 wt % and less than 0.7 wt %)”. Besides, the “intensity of off-tastes (bitter taste, metallic taste, harsh taste, astringent taste) derived from potassium chloride” value in assay [3] (setting [13]) was “decreased”. For the same compound, the “intensity of off-tastes (bitter taste, harsh taste) derived from amino acid (branched chain amino acid)” value in assay [4] is recorded as “suppressed”. Further, the “intensity of off-tastes (bitter taste, harsh taste, astringent taste) derived from sodium acetate” value in assay [5] is given as “suppressed”. Further, in assay [6], the “intensity of off-tastes (bitter taste, harsh taste, metallic taste) derived from sucralose” value is reported as “suppressed”.

With `O=Cc1ccco1` [furfural, Furfural], the “intensity of off-tastes (bitter taste, harsh taste, astringent taste) derived from soy protein” value in assay [1] is on record as “suppressed”. The “intensity of off-tastes (bitter taste, harsh taste, astringent taste) derived from methyl cellulose” value in assay [2] is recorded as “suppressed”. For the same compound, the off-taste suppressing effect result was “+ (intensity of the same level as potassium chloride aqueous solution with potassium chloride concentration of not less than 0.75 wt % and less than 0.8 wt %)” in assay [3] (setting [8]); “+++ (intensity of the same level as potassium chloride aqueous solution with potassium chloride concentration of not less than 0.65 wt % and less than 0.7 wt %)” in assay [3] (setting [9]); “+++ (intensity of the same level as potassium chloride aqueous solution with potassium chloride concentration of not less than 0.65 wt % and less than 0.7 wt %)” in assay [3] (setting [10]); “+ (intensity of the same level as potassium chloride aqueous solution with potassium chloride concentration of not less than 0.75 wt % and less than 0.8 wt %)” in assay [3] (setting [11]); “high” in assay [3] (setting [12]); “−” in assay [4] (setting [14]). Moreover, the off-taste suppressing effect entry in assay [4] (setting [15]) was “−− (suppressed compared to negative control (same level of intensity as BCAA sweetness aqueous solution in which total concentration of leucine, isoleucine, and valine (weight ratio=2:1:1) exceeds 0.8 wt % and is not more than 0.9 wt %))”; in assay [4] (setting [16]) it was “−− (suppressed compared to negative control (same level of intensity as BCAA sweetness aqueous solution in which total concentration of leucine, isoleucine, and valine (weight ratio=2:1:1) exceeds 0.8 wt % and is not more than 0.9 wt %))”; in assay [4] (setting [17]), “−− (suppressed compared to negative control (same level of intensity as BCAA sweetness aqueous solution in which total concentration of leucine, isoleucine, and valine (weight ratio=2:1:1) exceeds 0.8 wt % and is not more than 0.9 wt %))”; in assay [7], “+++ (intensity of the same level as potassium chloride aqueous solution with potassium chloride concentration of not less than 0.65 wt % and less than 0.7 wt %)”. Further, the “intensity of off-tastes (bitter taste, metallic taste, harsh taste, astringent taste) derived from potassium chloride” value in assay [3] (setting [13]) is given as “decreased”. For the same compound, in assay [4], the “intensity of off-tastes (bitter taste, harsh taste) derived from amino acid (branched chain amino acid)” value is “suppressed”. Further, the “intensity of off-tastes (bitter taste, harsh taste, astringent taste) derived from sodium acetate” value in assay [5] was “suppressed”. In assay [6], the “intensity of off-tastes (bitter taste, harsh taste, metallic taste) derived from sucralose” value was “suppressed”.
